Literature values in patent US20250367363A1, “METHODS OF LOCAL IRRIGATION FOR TREATING INFECTIONS” (Osteal Therapeutics, Inc., priority 2023, published 2025).
Where two headings read alike, the source gives them in different places. *1 amine or outer side, *2 acyl side, *3 side chain or, on linkers, in order; H or OH if unused. Where a SMILES comes first, the peptide text is derived from it. Bridges are numbered along the chain shown (N, C = ends). [ ]: non-standard residue; d: D form. The star is where a group is joined. hTyr(3S-OH,4S-OH,3'-OSO3H) = N[C@H](C(=O)O)[C@H](O)[C@@H](O)c1ccc(O)c(OS(=O)(=O)O)c1; pTerphenylCO(4''-OnC5H11) = CCCCCOc1ccc(-c2ccc(-c3ccc(C(=O)*)cc3)cc2)cc1; Orn(4R-OH,5R-OH) = O=C([C@H](C[C@@H](O)[C@@H](O)N[*:3])N[*:1])[*:2]; hTyr(3S-OH,4S-OH) = N[C@H](C(=O)O)[C@H](O)[C@@H](O)c1ccc(O)cc1; Pro(3S-OH,4S-Me) = C[C@H]1CN[C@H](C(=O)O)[C@H]1O; X1 = CCCCCOc1ccc(-c2cc(-c3ccc(C(=O)*)cc3)no2)cc1; Gln(3R-OH) = NC(=O)C[C@@H](O)[C@H](N)C(=O)O; Hyp = O=C(O)[C@@H]1C[C@@H](O)CN1

How the values were obtained:
[1] = systemic

Question: For `C[C@@H]1[C@H](O)[C@@H](C)/C=C/C=C/C=C/C=C/C=C/C=C/C=C/[C@H](O[C@@H]2O[C@H](C)[C@@H](O)[C@H](N)[C@@H]2O)C[C@@H]2O[C@](O)(C[C@@H](O)C[C@@H](O)[C@H](O)CC[C@@H](O)C[C@@H](O)CC(=O)O[C@H]1C)C[C@H](O)[C@H]2C(=O)O` [Amphotericin B], which “Safe IV Concentration” value (Table 3 antifungal agents) is on record?
Answer: Its value is 0.25 mg/mL.

Question: Which “Safe Daily Dose” value ([1]; Table 3 antifungal agents) does the source give for `CCCCCOc1ccc(-c2ccc(-c3ccc(C(=O)N[C@H]4C[C@@H](O)[C@@H](O)NC(=O)[C@@H]5[C@@H](O)[C@@H](C)CN5C(=O)[C@H]([C@@H](C)O)NC(=O)[C@H]([C@H](O)[C@@H](O)c5ccc(O)cc5)NC(=O)[C@@H]5C[C@@H](O)CN5C(=O)[C@H]([C@@H](C)O)NC4=O)cc3)cc2)cc1` [Anidulafungin] ({pTerphenylCO(4''-OnC5H11)}-[Orn(4R-OH,5R-OH)]T[Hyp][hTyr(3S-OH,4S-OH)]T[Pro(3S-OH,4S-Me)]; lactam 1-C) here?
Answer: Its value is 200 mg.

Question: And the “Safe IV Concentration” value (Table 3 antifungal agents)?
Answer: The value was 1 mg/mL.

Question: For `CC[C@H](C)C[C@H](C)CCCCCCCCC(=O)N[C@H]1C[C@@H](O)[C@@H](NCCN)NC(=O)[C@@H]2[C@@H](O)CCN2C(=O)[C@H]([C@H](O)CCN)NC(=O)[C@H]([C@H](O)[C@@H](O)c2ccc(O)cc2)NC(=O)[C@@H]2C[C@@H](O)CN2C(=O)[C@H]([C@@H](C)O)NC1=O` [Caspofungin], which “Safe Daily Dose” value ([1]; Table 3 antifungal agents) is on record?
Answer: The value was 70 mg.

Question: What about the “Safe IV Concentration” value (Table 3 antifungal agents) of the same compound?
Answer: Its value is 0.5 mg/mL.

Question: For `Cc1nnc(SCC2=C(C(=O)O)N3C(=O)[C@@H](NC(=O)Cn4cnnn4)[C@H]3SC2)s1` [Cefazolin], which “Safe Daily Dose” value ([1]; Table 2 antibiotics) is on record?
Answer: The value was 6 g/day.

Question: What about the “Safe IV Concentration” value (Table 2 antibiotics) of the same compound?
Answer: Its value is 330 mg/mL.

Question: For `CO/N=C(\C(=O)N[C@@H]1C(=O)N2C(C(=O)[O-])=C(C[N+]3(C)CCCC3)CS[C@H]12)c1csc(N)n1` [Cefepime], which “Safe Daily Dose” value ([1]; Table 2 antibiotics) is on record?
Answer: The value was 6 g/day.

Question: And the “Safe IV Concentration” value (Table 2 antibiotics)?
Answer: The value was 40 mg/mL.

Question: Which “Safe Daily Dose” value ([1]; Table 2 antibiotics) does the source give for `O=C(O)c1cn(C2CC2)c2cc(N3CCNCC3)c(F)cc2c1=O` [Ciprofloxacin] here?
Answer: The value was 1.2 g/day.

Question: What about the “Safe IV Concentration” value (Table 2 antibiotics) of the same compound?
Answer: Its value is 2 mg/mL.

Question: Which “Safe Daily Dose” value ([1]; Table 2 antibiotics) does the source give for `CCC[C@@H]1C[C@@H](C(=O)N[C@@H]([C@H]2O[C@H](SC)[C@H](O)[C@@H](O)[C@H]2O)[C@H](C)Cl)N(C)C1` [Clindamycin] here?
Answer: Its value is 2.7 g/day.

Question: And the “Safe IV Concentration” value (Table 2 antibiotics)?
Answer: Its value is 18 mg/mL.

Question: What does the source list for `C[C@@H](c1nc(-c2ccc(C#N)cc2)cs1)[C@](O)(Cn1cncn1)c1cc(F)ccc1F` [Isavuconazole]?
Answer: Safe Daily Dose ([1]; Table 3 antifungal agents): 1116 mg; Safe IV Concentration (Table 3 antifungal agents): 1.488 mg/mL

Question: For `CCCCCOc1ccc(-c2cc(-c3ccc(C(=O)N[C@H]4C[C@@H](O)[C@@H](O)NC(=O)[C@@H]5[C@@H](O)[C@@H](C)CN5C(=O)[C@H]([C@H](O)CC(N)=O)NC(=O)[C@H]([C@H](O)[C@@H](O)c5ccc(O)c(OS(=O)(=O)O)c5)NC(=O)[C@@H]5C[C@@H](O)CN5C(=O)[C@H]([C@@H](C)O)NC4=O)cc3)no2)cc1` [Micafungin] (X1-[Orn(4R-OH,5R-OH)]T[Hyp][hTyr(3S-OH,4S-OH,3'-OSO3H)][Gln(3R-OH)][Pro(3S-OH,4S-Me)]; lactam 1-C), which “Safe Daily Dose” value ([1]; Table 3 antifungal agents) is on record?
Answer: Its value is 150 mg.

Question: What about the “Safe IV Concentration” value (Table 3 antifungal agents) of the same compound?
Answer: The value was 1.5 mg/mL.

Question: What does the source list for `CN[C@H](CC(C)C)C(=O)N[C@H]1C(=O)N[C@@H](CC(N)=O)C(=O)N[C@H]2C(=O)N[C@H]3C(=O)N[C@H](C(=O)N[C@H](C(=O)O)c4cc(O)cc(O)c4-c4cc3ccc4O)[C@H](O)c3ccc(c(Cl)c3)Oc3cc2cc(c3O[C@@H]2O[C@H](CO)[C@@H](O)[C@H](O)[C@H]2O[C@H]2C[C@](C)(N)[C@H](O)[C@H](C)O2)Oc2ccc(cc2Cl)[C@H]1O` [Vancomycin]?
Answer: Safe Daily Dose ([1]; Table 2 antibiotics): 45 to 60 mg/kg/day; Safe IV Concentration (Table 2 antibiotics): 5 mg/mL

Question: Which “Safe Daily Dose” value ([1]; Table 2 antibiotics) does the source give for Gentamicin here?
Answer: The value was 7 mg/kg/day.

Question: And the “Safe IV Concentration” value (Table 2 antibiotics)?
Answer: The value was 0.2 mg/mL.
